Key:
Assay in all cases: relative viability (nuclei count vs DMSO), 5 days (fraction); higher = more cells survive
ALW-II-49-7 + Foretinib = compound: Cc1ccc(C(=O)Nc2cccc(C(F)(F)F)c2)cc1Nc1cncc(C(N)=O)c1 [ALW-II-49-7] + COc1cc2c(Oc3ccc(NC(=O)C4(C(=O)Nc5ccc(F)cc5)CC4)cc3F)ccnc2cc1OCCCN1CCOCC1 [Foretinib] (partner 0.25 µM)
Summary of the method: (§1)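 For relative viability, nuclei counts in treated wells were divided by those in vehicle wells. Lung cancer cell lines had been pin-tool dosed in 1536-well plates the day after seeding and cultured for 5 days, then fixed and stained in one step (final 0.05% Triton X-100, 1% formaldehyde, 1 ug/ml Hoechst) and imaged at 4×. Doses were one drug alone or a fixed anchor-drug dose plus five library-drug doses (not always all listed) in √10 steps, and values are duplicate-plate medians.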

ALW-II-49-7 + Crizotinib = compound: Cc1ccc(C(=O)Nc2cccc(C(F)(F)F)c2)cc1Nc1cncc(C(N)=O)c1 [ALW-II-49-7] + C[C@@H](Oc1cc(-c2cnn(C3CCNCC3)c2)cnc1N)c1c(Cl)ccc(F)c1Cl [Crizotinib] (partner 1 µM)
Summary of the method: as §1

XMD13-2 + Luminespib = compound: C1CC1C(=O)NC2=NNC3=C2C=CC(=C3)C4=CC(=CC=C4)C(=O)NC5CC5 [XMD13-2] + CCNC(=O)c1noc(-c2cc(C(C)C)c(O)cc2O)c1-c1ccc(CN2CCOCC2)cc1 [Luminespib] (partner 0.01 µM)
Summary of the method: as §1

Row | Cell Line | relative viability (ALW-II-49-7 + Foretinib; first compound 0.08 µM) | relative viability (ALW-II-49-7 + Foretinib; first compound 0.253 µM) | relative viability (ALW-II-49-7 + Foretinib; first compound 0.8 µM) | relative viability (ALW-II-49-7 + Foretinib; first compound 2.53 µM) | relative viability (ALW-II-49-7 + Foretinib; first compound 8 µM) | relative viability (ALW-II-49-7 + Crizotinib; first compound 0.08 µM) | relative viability (ALW-II-49-7 + Crizotinib; first compound 0.253 µM) | relative viability (ALW-II-49-7 + Crizotinib; first compound 0.8 µM) | relative viability (ALW-II-49-7 + Crizotinib; first compound 2.53 µM) | relative viability (ALW-II-49-7 + Crizotinib; first compound 8 µM) | relative viability (XMD13-2 + Luminespib; first compound 0.05 µM) | relative viability (XMD13-2 + Luminespib; first compound 0.1581 µM) | relative viability (XMD13-2 + Luminespib; first compound 0.5 µM) | relative viability (XMD13-2 + Luminespib; first compound 1.581 µM) | relative viability (XMD13-2 + Luminespib; first compound 5 µM)
1 | NCI-H2023 | 0.841 | 1.02 | 0.966 | 1.02 | 1.09 | 0.703 | 0.714 | 0.554 | 0.622 | 0.729 | 0.884 | 0.703 | 0.954 | 0.712 | 0.913
2 | NCI-H2085 | 1.08 | 0.876 | 0.989 | 1.06 | 1.02 | 0.762 | 0.889 | 0.898 | 0.905 | 0.938 | 0.447 | 0.494 | 0.491 | 0.497 | 0.423
3 | NCI-H2087 | 1.22 | 1.12 | 1.09 | 1.08 | 1.04 | 1.07 | 0.843 | 0.957 | 0.758 | 0.851 | 0.164 | 0.159 | 0.217 | 0.198 | 0.152
4 | NCI-H2126 | 0.805 | 0.998 | 1.21 | 0.998 | 1.11 | 0.857 | 0.976 | 1.06 | 0.998 | 0.987 | 0.899 | 0.977 | 0.957 | 0.832 | 0.92
5 | NCI-H2170 | 0.908 | 1.12 | 1.01 | 0.999 | 1.01 | 1.3 | 1.12 | 1.3 | 1.21 | 1.09 | 0.506 | 0.515 | 0.776 | 0.55 | 0.908
6 | NCI-H2228 | 1.07 | 0.651 | 0.736 | 0.848 | 0.795 | 0.541 | 0.505 | 0.423 | 0.483 | 0.27 | 0.144 | 0.218 | 0.166 | 0.129 | 0.178
7 | NCI-H2347 | 1.1 | 1.04 | 0.906 | 0.227 | 0.844 | 0.683 | 0.69 | 0.676 | 0.671 | 0.583 | 0.405 | 0.342 | 0.486 | 0.54 | 0.791
8 | NCI-H2405 | 1.03 | 1.06 | 0.998 | 0.847 | 0.895 | 0.928 | 0.806 | 0.832 | 0.826 | 0.68 | 0.853 | 0.634 | 0.578 | 0.641 | 0.633
9 | NCI-H3122 | 1.06 | 0.978 | 0.96 | 1.03 | 0.931 | 0.309 | 0.272 | 0.271 | 0.331 | 0.307 | 0.102 | 0.0949 | 0.106 | 0.105 | 0.0867
10 | PC-3 [JPC-3] | 0.995 | 1.09 | 1.01 | 1.01 | 1.02 | 0.854 | 0.979 | 1.05 | 1.06 | 1.01 | 0.681 | 0.661 | 0.64 | 0.776 | 0.782
11 | PC-14 | 0.935 | 0.634 | 0.841 | 0.924 | 0.89 | 0.911 | 0.953 | 0.841 | 0.863 | 0.866 | 0.133 | 0.192 | 0.118 | 0.151 | 0.154
12 | RERF-LC-KJ | 0.84 | 0.874 | 0.941 | 0.933 | 0.902 | 0.831 | 0.924 | 0.992 | 0.831 | 0.741 | 1.32 | 1.29 | 1.22 | 1.14 | 1.1
13 | SK-LU-1 | 0.894 | 0.895 | 0.923 | 0.797 | 0.592 | 0.863 | 0.898 | 0.988 | 0.853 | 0.584 | 0.217 | 0.239 | 0.227 | 0.194 | 0.211
14 | SK-MES-1 | 0.834 | 0.687 | 0.737 | 0.977 | 0.831 | 0.885 | 0.979 | 0.948 | 0.926 | 0.7 | 1.06 | 0.67 | 0.773 | 0.711 | 0.556
15 | SW 1573 | 0.92 | 0.729 | 0.945 | 1.19 | 1.02 | 0.884 | 0.747 | 0.748 | 1.1 | 0.707 | 0.276 | 0.239 | 0.308 | 0.188 | 0.213

Reference: the supplement of paper PMC10307832
